Assay results taken from US20100092526A1, “NANOEMULSION THERAPEUTIC COMPOSITIONS AND METHODS OF USING THE SAME” (NanoBio Corporation, priority 2008, published 2010).
Read-outs that look alike come from different tables or passages of the source.

What was measured:
Pseudomonas aeruginosa = assay: MIC/MBC against CF isolates (CLSI, alamar blue)
Burkholderia cenocepacia = assay: MIC/MBC against CF isolates (CLSI, alamar blue); details: Burkholderia cenocepacia
[1] = test system: Stenotrophomonas maltophilia; assay: MIC/MBC against CF isolates (CLSI, alamar blue); details: Stenotrophomonas maltophilia
Acinetobacter baumannii = assay: MIC/MBC against clinical isolates (CLSI, alamar blue); details: Acinetobacter baumannii
[2] = CF Stenotrophomonas isolate NB41
[3] = CF Stenotrophomonas isolate NB42
[4] = CF Stenotrophomonas isolate NB43
[5] = CF Stenotrophomonas isolate NB44
[6] = CF Stenotrophomonas isolate NB45
[7] = CF Stenotrophomonas isolate Steno 1
[8] = CF Stenotrophomonas isolate Steno 2
[9] = CF Stenotrophomonas isolate Steno 3
[10] = CF Stenotrophomonas isolate Steno 4
[11] = CF Stenotrophomonas isolate Steno 6
[12] = CF Stenotrophomonas isolate Steno 8
[13] = Pseudomonas aeruginosa, CF Pseudomonas isolate NB1
[14] = Pseudomonas aeruginosa, CF Pseudomonas isolate NB2
[15] = Pseudomonas aeruginosa, CF Pseudomonas isolate NB3
[16] = Pseudomonas aeruginosa, CF Pseudomonas isolate NB4
[17] = Pseudomonas aeruginosa, CF Pseudomonas isolate NB5
[18] = Pseudomonas aeruginosa, CF Pseudomonas isolate NB6
[19] = Pseudomonas aeruginosa, CF Pseudomonas isolate NB7
[20] = Pseudomonas aeruginosa, CF Pseudomonas isolate NB8
[21] = Pseudomonas aeruginosa, CF Pseudomonas isolate NB9
[22] = Pseudomonas aeruginosa, CF Pseudomonas isolate NB10
[23] = Pseudomonas aeruginosa, CF Pseudomonas isolate NB11
[24] = Pseudomonas aeruginosa, CF Pseudomonas isolate NB12
[25] = Pseudomonas aeruginosa, CF Pseudomonas isolate NB13
[26] = Pseudomonas aeruginosa, CF Pseudomonas isolate NB14
[27] = Pseudomonas aeruginosa, CF Pseudomonas isolate NB15
[28] = Pseudomonas aeruginosa, CF Pseudomonas isolate NB16
[29] = Pseudomonas aeruginosa, CF Pseudomonas isolate NB17
[30] = Pseudomonas aeruginosa, CF Pseudomonas isolate NB18
[31] = Pseudomonas aeruginosa, CF Pseudomonas isolate NB19
[32] = Pseudomonas aeruginosa, CF Pseudomonas isolate NB20

CCN1CCN(C(=O)N[C@@H](C(=O)N[C@@H]2C(=O)N3[C@@H]2SC(C)(C)[C@@H]3C(=O)O)c2ccccc2)C(=O)C1=O [Pipercillin]
1024 mg/L: MBC (Pseudomonas aeruginosa; CF Pseudomonas isolate NB1) | MIC (Pseudomonas aeruginosa; CF Pseudomonas isolate NB1) | MBC (Pseudomonas aeruginosa; CF Pseudomonas isolate NB4) | MIC (Pseudomonas aeruginosa; CF Pseudomonas isolate NB6) | MBC (Pseudomonas aeruginosa; CF Pseudomonas isolate NB7)
128 mg/L: MBC (Pseudomonas aeruginosa; CF Pseudomonas isolate NB2) | MIC (Pseudomonas aeruginosa; CF Pseudomonas isolate NB2)
>1024 mg/L: MBC (Pseudomonas aeruginosa; CF Pseudomonas isolate NB3) | MIC (Pseudomonas aeruginosa; CF Pseudomonas isolate NB3) | MBC (Pseudomonas aeruginosa; CF Pseudomonas isolate NB5) | MIC (Pseudomonas aeruginosa; CF Pseudomonas isolate NB5) | MBC (Pseudomonas aeruginosa; CF Pseudomonas isolate NB6) | MBC (Pseudomonas aeruginosa; CF Pseudomonas isolate NB8) | MIC (Pseudomonas aeruginosa; CF Pseudomonas isolate NB8) | MBC (Pseudomonas aeruginosa; CF Pseudomonas isolate NB9)
256 mg/L: MIC (Pseudomonas aeruginosa; CF Pseudomonas isolate NB10)
512 mg/L: MIC (Pseudomonas aeruginosa; CF Pseudomonas isolate NB4) | MIC (Pseudomonas aeruginosa; CF Pseudomonas isolate NB7) | MIC (Pseudomonas aeruginosa; CF Pseudomonas isolate NB9) | MBC (Pseudomonas aeruginosa; CF Pseudomonas isolate NB10)

CO[C@@]1(NC(=O)Cc2cccs2)C(=O)N2C(C(=O)O)=C(COC(N)=O)CS[C@@H]21 [Cefoxitin]
256 mg/L: MIC90 (Burkholderia cenocepacia) | MIC (Burkholderia cenocepacia; CF Burkholderia isolate NB21) | MBC (Burkholderia cenocepacia; CF Burkholderia isolate NB22) | MBC (Burkholderia cenocepacia; CF Burkholderia isolate NB25) | MBC (Burkholderia cenocepacia; CF Burkholderia isolate NB26) | MIC (Burkholderia cenocepacia; CF Burkholderia isolate NB29) | MIC [1, 5] | MIC [1, 9] | MBC [1, 10] | MIC [1, 10] | MBC [1, 11] | MBC (Acinetobacter baumannii; Acinetobacter isolate NB32) | MIC (Acinetobacter baumannii; Acinetobacter isolate NB32)
128 mg/L: MIC50 (Burkholderia cenocepacia; 10 CF Burkholderia isolates) | MIC (Burkholderia cenocepacia; CF Burkholderia isolate NB22) | MIC (Burkholderia cenocepacia; CF Burkholderia isolate NB24) | MIC (Burkholderia cenocepacia; CF Burkholderia isolate NB25) | MIC (Burkholderia cenocepacia; CF Burkholderia isolate NB26) | MIC (Burkholderia cenocepacia; CF Burkholderia isolate NB27) | MBC (Burkholderia cenocepacia; CF Burkholderia isolate NB30) | MIC (Burkholderia cenocepacia; CF Burkholderia isolate NB30) | MIC [1, 11] | MBC (Acinetobacter baumannii; Acinetobacter isolate NB36) | MIC (Acinetobacter baumannii; Acinetobacter isolate NB36)
16 mg/L: MBC (Burkholderia cenocepacia; CF Burkholderia isolate NB28b) | MIC (Burkholderia cenocepacia; CF Burkholderia isolate NB28b)
> 256 mg/L: MBC (Burkholderia cenocepacia; CF Burkholderia isolate NB21) | MBC (Burkholderia cenocepacia; CF Burkholderia isolate NB23) | MIC (Burkholderia cenocepacia; CF Burkholderia isolate NB23) | MBC (Burkholderia cenocepacia; CF Burkholderia isolate NB24) | MBC (Burkholderia cenocepacia; CF Burkholderia isolate NB27) | MBC (Burkholderia cenocepacia; CF Burkholderia isolate NB29) | MIC50 [1] | MIC90 [1] | MBC [1, 2] | MIC [1, 2] | MBC [1, 3] | MIC [1, 3] | MBC [1, 4] | MIC [1, 4] | MBC [1, 5] | MBC [1, 6] | MIC [1, 6] | MBC [1, 7] | MIC [1, 7] | MBC [1, 8] | MIC [1, 8] | MBC [1, 9] | MBC [1, 12] | MIC [1, 12] | MBC ([1]; read-out: MBC 50, 11 CF Stenotrophomonas isolates) | MIC50 (Acinetobacter baumannii) | MIC90 (Acinetobacter baumannii) | MBC (Acinetobacter baumannii; Acinetobacter isolate NB31) | MIC (Acinetobacter baumannii; Acinetobacter isolate NB31) | MBC (Acinetobacter baumannii; Acinetobacter isolate NB33) | MIC (Acinetobacter baumannii; Acinetobacter isolate NB33) | MBC (Acinetobacter baumannii; Acinetobacter isolate NB34) | MIC (Acinetobacter baumannii; Acinetobacter isolate NB34) | MBC (Acinetobacter baumannii; Acinetobacter isolate NB35) | MIC (Acinetobacter baumannii; Acinetobacter isolate NB35) | MBC (Acinetobacter baumannii; Acinetobacter isolate NB37) | MIC (Acinetobacter baumannii; Acinetobacter isolate NB37) | MBC (Acinetobacter baumannii; Acinetobacter isolate NB38) | MIC (Acinetobacter baumannii; Acinetobacter isolate NB38) | MBC (Acinetobacter baumannii; Acinetobacter isolate NB39) | MIC (Acinetobacter baumannii; Acinetobacter isolate NB39) | MBC (Acinetobacter baumannii; Acinetobacter isolate NB40) | MIC (Acinetobacter baumannii; Acinetobacter isolate NB40) | MBC (Acinetobacter baumannii; read-out: MBC 50, 10 Acinetobacter isolates) | MIC50 (Pseudomonas aeruginosa; Pseudomonas aeruginosa) | MIC90 (Pseudomonas aeruginosa; Pseudomonas aeruginosa) | MBC (Pseudomonas aeruginosa; [13]) | MIC (Pseudomonas aeruginosa; [13]) | MBC (Pseudomonas aeruginosa; [14]) | MIC (Pseudomonas aeruginosa; [14]) | MBC (Pseudomonas aeruginosa; [15]) | MIC (Pseudomonas aeruginosa; [15]) | MBC (Pseudomonas aeruginosa; [16]) | MIC (Pseudomonas aeruginosa; [16]) | MBC (Pseudomonas aeruginosa; [17]) | MIC (Pseudomonas aeruginosa; [17]) | MBC (Pseudomonas aeruginosa; [18]) | MIC (Pseudomonas aeruginosa; [18]) | MBC (Pseudomonas aeruginosa; [19]) | MIC (Pseudomonas aeruginosa; [19]) | MBC (Pseudomonas aeruginosa; [20]) | MIC (Pseudomonas aeruginosa; [20]) | MBC (Pseudomonas aeruginosa; [21]) | MIC (Pseudomonas aeruginosa; [21]) | MBC (Pseudomonas aeruginosa; [22]) | MIC (Pseudomonas aeruginosa; [22]) | MBC (Pseudomonas aeruginosa; [23]) | MIC (Pseudomonas aeruginosa; [23]) | MBC (Pseudomonas aeruginosa; [24]) | MIC (Pseudomonas aeruginosa; [24]) | MBC (Pseudomonas aeruginosa; [25]) | MIC (Pseudomonas aeruginosa; [25]) | MBC (Pseudomonas aeruginosa; [26]) | MIC (Pseudomonas aeruginosa; [26]) | MBC (Pseudomonas aeruginosa; [27]) | MIC (Pseudomonas aeruginosa; [27]) | MBC (Pseudomonas aeruginosa; [28]) | MIC (Pseudomonas aeruginosa; [28]) | MBC (Pseudomonas aeruginosa; [29]) | MIC (Pseudomonas aeruginosa; [29]) | MBC (Pseudomonas aeruginosa; [30]) | MIC (Pseudomonas aeruginosa; [30]) | MBC (Pseudomonas aeruginosa; [31]) | MIC (Pseudomonas aeruginosa; [31]) | MBC (Pseudomonas aeruginosa; [32]) | MIC (Pseudomonas aeruginosa; [32]) | MBC (Pseudomonas aeruginosa; Pseudomonas aeruginosa, read-out: MBC 50, 20 CF Pseudomonas isolates) | MBC (Pseudomonas aeruginosa; Pseudomonas aeruginosa, read-out: MBC 50, second MBC 50 line of the summary, Stenotrophomonas, values equal those of the CF Pseudomonas isolates)
>256 mg/L: MBC 90 (Pseudomonas aeruginosa; 20 CF Pseudomonas isolates)
